Test system: 926638-142-R-J1-PDC complex spheroid viability
Assay: Anticancer human tumor 926638-142-R-J1-PDC patient-derived endometrial carcinoma cell line growth inhibition [POLQ]
Details: for IC50: curve of first compound; for viability, T/C: stronger effect = lower value
Experimental: Multicellular complex tumor spheroid response to Polymerase (POL) inhibitors (novobiocin, ART-558, RP6685) in combination with a variety of drugs and investigational agents in selected tumor cell lines
The POL inhibitors (novobiocin, ART-558, and RP6685) were evaluated both individually and in combination with standard of care and investigational anticancer small molecules within a complex spheroid model of solid tumors. . Complex spheroids include a stromal component modeled by human endothelial cells (HUVEC) and fibroblasts modeled by human mesenchymal stem cells (MSCs). The concentration ranges selected for each drug and investigational agent were based upon clinically achievable concentrations if the clinical Cmax of the agent was known.
Compounds. The drugs and investigational agents: novobiocin (NSC847541), ART-558 (NSC835418), RP-6685 (NSC848927), peposertib (NSC802822), ceralasertib (NSC780249), elimusertib (NSC800525), camonsertib (NSC841442), AZD-1390 (NSC803789), olaparib (NSC753686), talazoparib (NSC767125), rucaparib (NSC756644), sotorasib (NSC818433), MRTX-1133 (NSC836407), SN-38 (NSC673596), topotecan (NSC609699), epotoside (NSC141540), doxorubicin (NSC123127), gemcitabine (NSC613327), 5-fluorouracil (NSC19893), paclitaxel (NSC125973), vemurafenib (NSC761431), MSA-2 (NSC828583), SN-011 (NSC837082), adavosertib (NSC754352), prexasertib (NSC758257), carboplatin (NSC241240) and oxaliplatin (NSC266046), were obtained from the National Cancer Institute (NCI) Developmental Therapeutics Program Chemical Repository (21). The FDA-approved anticancer drug set is available from the Developmental Therapeutics Program at https://dtp.cancer.gov/organization/dscb/obtaining/. […] The stock solutions were prepared in dimethyl sulfoxide (DMSO, Sigma-Aldrich, St. Louis, MO, cat. D2650), except for the platinum compounds which were prepared in saline (Quality Biological, Gaithersburg, MD, cat. 114-055-101), at 800-fold the tested concentration and stored at -70 degrees C prior to their use. All drugs and investigational agents were tested over a range starting from a high concentration at or near the clinical Cmax and decreasing in half-log increments. If the clinical Cmax for an agent had not been determined, the highest concentration tested was 10 microM, except for SN-38, which was tested at a high concentration of 1 microM.
Cell Culture. All cells were maintained in an incubator at 37 degrees C and 5% CO2 with 95% humidity. The PDC lines were cultured according to standard operating procedures established by the NCI PDMR (https://pdmr.cancer.gov). Table 3 of the manuscript, lists the cell lines along with the number of the three cell types plated to form the mct-spheroids and media for tumor cell growth. After thawing, all PDC lines, except 997537-175-T-J1-PDC and 415267-285-R-J2-PDC, were cultured in Matrigel-coated flasks prepared with a working solution of 1X Ham's F-12 nutrient mix, without supplementation (Thermo Fisher Scientific, cat. 11765054), 100 U/mL penicillin-streptomycin (Thermo Fisher Scientific, cat. 15140122), and 2.5% Matrigel (Corning Inc., Corning, NY, cat. 354248) for the first three passages. The two PDC lines 997537-175-T-J1-PDC and 415267-285-R-J2-PDC were cultured on uncoated flasks. The 857933-349-R-J2-PDC line was cultured in 6C/Colon 1B media containing advanced DMEM/F-12 (Thermo Fisher Scientific, cat. 12634028), 10 mM HEPES (Thermo Fisher Scientific, cat. 15630080), 1X GlutaMAX supplement (Thermo Fisher Scientific, cat. 35050061), 0.1 mg/mL primocin (InvivoGen, San Diego, CA, cat. ant-pm-2), 10% defined fetal bovine serum, heat inactivated (HyClone Laboratories Inc., Logan, UT, cat. SH30070.03HI), 50% L-WRN conditioned media (ATCC, cat. CRL-3276), 1.25 mM N-Acetyl-L-cysteine (Sigma-Aldrich, cat. A9165), 10 mM nicotinamide (Sigma-Aldrich, cat. N0636), 1X B-27 supplement (Thermo Fisher Scientific, cat. 17504044), 1X N-2 supplement (Thermo Fisher Scientific, cat. […]

[1] = second compound 0.0316 µM, first compound 0.00316 µM
[2] = second compound 0.0316 µM, first compound 0.01 µM
[3] = second compound 0.0316 µM, first compound 0.0316 µM
[4] = second compound 0.0316 µM, first compound 0.1 µM
[5] = second compound 0.1 µM, first compound 0.00316 µM
[6] = second compound 0.1 µM, first compound 0.01 µM
[7] = second compound 0.1 µM, first compound 0.0316 µM
[8] = second compound 0.1 µM, first compound 0.1 µM
[9] = second compound 0.316 µM, first compound 0.00316 µM
[10] = second compound 0.316 µM, first compound 0.01 µM
[11] = second compound 0.316 µM, first compound 0.0316 µM
[12] = second compound 0.316 µM, first compound 0.1 µM
[13] = second compound 1 µM, first compound 0.00316 µM
[14] = second compound 1 µM, first compound 0.01 µM
[15] = second compound 1 µM, first compound 0.0316 µM
[16] = second compound 1 µM, first compound 0.1 µM
[17] = second compound 3.16 µM, first compound 0.00316 µM
[18] = second compound 3.16 µM, first compound 0.01 µM
[19] = second compound 3.16 µM, first compound 0.0316 µM
[20] = second compound 3.16 µM, first compound 0.1 µM
[21] = second compound 10 µM, first compound 0.00316 µM
[22] = second compound 10 µM, first compound 0.01 µM
[23] = second compound 10 µM, first compound 0.0316 µM
[24] = second compound 10 µM, first compound 0.1 µM
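Also: spheroids exposed to drugs for one week before readout.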
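For viability, T/C in this document: percent viability relative to DMSO vehicle control wells set as 100%.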

SMILES: C=CCn1c(=O)c2cnc(Nc3ccc(N4CCN(C)CC4)cc3)nc2n1-c1cccc(C(C)(C)O)n1 + COC1C(OC(N)=O)C(O)C(Oc2ccc3c(O)c(NC(=O)c4ccc(O)c(CC=C(C)C)c4)c(=O)oc3c2C)OC1(C)C
- IC50 (second compound 0.0316 µM): 494 nM
- IC50 (second compound 0.1 µM): 445 nM
- IC50 (second compound 0.316 µM): 414 nM
- IC50 (second compound 1 µM): 339 nM
- IC50 (second compound 3.16 µM): 277 nM
- IC50 (second compound 10 µM): 470 nM
- viability, T/C [1]: 106%
- viability, T/C [2]: 95.1%
- viability, T/C [3]: 93%
- viability, T/C [4]: 85.3%
- viability, T/C (second compound 0.0316 µM, first compound 0.316 µM): 54.1%
- viability, T/C (second compound 0.0316 µM, first compound 1 µM): 41.6%
- viability, T/C [5]: 102%
- viability, T/C [6]: 105%
- viability, T/C [7]: 90.7%
- viability, T/C [8]: 80%
- viability, T/C (second compound 0.1 µM, first compound 0.316 µM): 57.7%
- viability, T/C (second compound 0.1 µM, first compound 1 µM): 32.2%
- viability, T/C [9]: 88%
- viability, T/C [10]: 86.1%
- viability, T/C [11]: 78.3%
- viability, T/C [12]: 87.4%
- viability, T/C (second compound 0.316 µM, first compound 0.316 µM): 52.8%
- viability, T/C (second compound 0.316 µM, first compound 1 µM): 40.7%
- viability, T/C [13]: 84.4%
- viability, T/C [14]: 98.5%
- viability, T/C [15]: 93.3%
- viability, T/C [16]: 85.2%
- viability, T/C (second compound 1 µM, first compound 0.316 µM): 50.9%
- viability, T/C (second compound 1 µM, first compound 1 µM): 37.1%
- viability, T/C [17]: 93.6%
- viability, T/C [18]: 104%
- viability, T/C [19]: 89.1%
- viability, T/C [20]: 70.9%
- viability, T/C (second compound 3.16 µM, first compound 0.316 µM): 47.7%
- viability, T/C (second compound 3.16 µM, first compound 1 µM): 37.7%
- viability, T/C [21]: 98%
- viability, T/C [22]: 109%
- viability, T/C [23]: 91.3%
- viability, T/C [24]: 80.5%
- viability, T/C (second compound 10 µM, first compound 0.316 µM): 56.6%
- viability, T/C (second compound 10 µM, first compound 1 µM): 37.6%

SMILES: CC[C@@]1(O)C(=O)OCc2c1cc1n(c2=O)Cc2cc3c(CN(C)C)c(O)ccc3nc2-1 + COC1C(OC(N)=O)C(O)C(Oc2ccc3c(O)c(NC(=O)c4ccc(O)c(CC=C(C)C)c4)c(=O)oc3c2C)OC1(C)C
- IC50 (second compound 0.0316 µM): > 100 nM
- IC50 (second compound 0.1 µM): 86.5 nM
- IC50 (second compound 0.316 µM): > 100 nM
- IC50 (second compound 1 µM): 66.1 nM
- IC50 (second compound 3.16 µM): 98.1 nM
- IC50 (second compound 10 µM): 79.5 nM
- viability, T/C (second compound 0.0316 µM, first compound 0.000316 µM): 102%
- viability, T/C (second compound 0.0316 µM, first compound 0.001 µM): 92.5%
- viability, T/C [1]: 85.7%
- viability, T/C [2]: 72.3%
- viability, T/C [3]: 70.9%
- viability, T/C [4]: 47.7%
- viability, T/C (second compound 0.1 µM, first compound 0.000316 µM): 80.4%
- viability, T/C (second compound 0.1 µM, first compound 0.001 µM): 105%
- viability, T/C [5]: 80.4%
- viability, T/C [6]: 75.7%
- viability, T/C [7]: 72.1%
- viability, T/C [8]: 46.6%
- viability, T/C (second compound 0.316 µM, first compound 0.000316 µM): 107%
- viability, T/C (second compound 0.316 µM, first compound 0.001 µM): 106%
- viability, T/C [9]: 77.9%
- viability, T/C [10]: 65.9%
- viability, T/C [11]: 76.2%
- viability, T/C [12]: 54.6%
- viability, T/C (second compound 1 µM, first compound 0.000316 µM): 83.4%
- viability, T/C (second compound 1 µM, first compound 0.001 µM): 70.5%
- viability, T/C [13]: 75.8%
- viability, T/C [14]: 73.2%
- viability, T/C [15]: 60.8%
- viability, T/C [16]: 43.5%
- viability, T/C (second compound 3.16 µM, first compound 0.000316 µM): 94.2%
- viability, T/C (second compound 3.16 µM, first compound 0.001 µM): 93.7%
- viability, T/C [17]: 82.5%
- viability, T/C [18]: 83.5%
- viability, T/C [19]: 72.9%
- viability, T/C [20]: 48.6%
- viability, T/C (second compound 10 µM, first compound 0.000316 µM): 84.8%
- viability, T/C (second compound 10 µM, first compound 0.001 µM): 88.8%
- viability, T/C [21]: 81.1%
- viability, T/C [22]: 71.1%
- viability, T/C [23]: 73.8%
- viability, T/C [24]: 44.2%

Source: PubChem BioAssay AID1963826 (Molecular Pharmacology Branch, DTP, NCI, 2024)
